Among the data in patent publication US11981658B2, “Substituted aminopyridine compounds as EGFR inhibitors” (YUHAN CORPORATION, priority 2021, dated 2024) are IC50 values, retold here.

Structures are written as SMILES. Read-outs that look alike come from different tables or passages of the source.

Assay [1] addresses EGFR L858R/T790M/C797S (Homo sapiens, UniProt P00533, C797S/L858R/T790M). Put plainly: Biochemical EGFR kinase inhibition assay (Lance Ultra TR-FRET), triple mutant L858R/T790M/C797S. Summed up: (§1)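 Kinase activity is measured by TR-FRET phosphopeptide detection. Compounds span 0.003 μM to 10 μM; the 1 h reaction at room temperature is quenched with EDTA, then labelled antibody (2 nM) is incubated 60 min before reading.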
A general note: In TR-FRET formats the signal depends on donor and acceptor labels being close together.

Assay [2] has as its target EGFR Del19/T790M/C797S (Homo sapiens, UniProt P00533, C797S/DEL746-750/T790M). Put plainly: Biochemical EGFR kinase inhibition assay (Lance Ultra TR-FRET), triple mutant del19/T790M/C797S. Summed up:
as §1

Assay [3] has as its target EGFR Del19/C797S (Homo sapiens, UniProt P00533, C797S/DEL746-750). The assay can be described thus: Biochemical EGFR kinase inhibition assay (Lance Ultra TR-FRET), double mutant del19/C797S. Summed up: as §1
The target in assay [4] is EGFR wildtype (WT) (Homo sapiens, UniProt P00533). Put plainly: Biochemical EGFR kinase inhibition assay (Lance Ultra TR-FRET), wildtype. In a few lines:
as §1

Assay [5] deals with EGFR L858R/C797S (Homo sapiens, UniProt P00533, C797S/L858R). Put plainly: Biochemical EGFR kinase inhibition assay (Lance Ultra TR-FRET), double mutant L858R/C797S. In a few lines:
as §1

The mark [6] stands for this setting: ATP at Km, read-out: IC50 L858R/T790M/C797S (nM), Km ATP.
Where [7] appears, read: IC50 L858R/T790M/C797S (nM), 100 μM ATP.
[8] abbreviates: ATP at Km, read-out: IC50 Del19/T790M/C797S (nM), Km ATP.
[9] abbreviates: IC50 Del19/T790M/C797S (nM), 100 μM ATP.
The mark [10] stands for this setting: ATP at Km, read-out: IC50 Del19/C797S (nM), Km ATP.
[11] abbreviates: IC50 Del19/C797S (nM), 100 μM ATP.
The mark [12] stands for this setting: ATP at Km, read-out: IC50 WT (nM), Km ATP.
The mark [13] stands for this setting: ATP at Km, read-out: IC50 L858R/C797S (nM), Km ATP.
Where [14] appears, read: IC50 L858R/C797S (nM), 100 μM ATP.

Sequence of EGFR L858R/T790M/C797S (P00533 25-1210 T790M/C797S/L858R): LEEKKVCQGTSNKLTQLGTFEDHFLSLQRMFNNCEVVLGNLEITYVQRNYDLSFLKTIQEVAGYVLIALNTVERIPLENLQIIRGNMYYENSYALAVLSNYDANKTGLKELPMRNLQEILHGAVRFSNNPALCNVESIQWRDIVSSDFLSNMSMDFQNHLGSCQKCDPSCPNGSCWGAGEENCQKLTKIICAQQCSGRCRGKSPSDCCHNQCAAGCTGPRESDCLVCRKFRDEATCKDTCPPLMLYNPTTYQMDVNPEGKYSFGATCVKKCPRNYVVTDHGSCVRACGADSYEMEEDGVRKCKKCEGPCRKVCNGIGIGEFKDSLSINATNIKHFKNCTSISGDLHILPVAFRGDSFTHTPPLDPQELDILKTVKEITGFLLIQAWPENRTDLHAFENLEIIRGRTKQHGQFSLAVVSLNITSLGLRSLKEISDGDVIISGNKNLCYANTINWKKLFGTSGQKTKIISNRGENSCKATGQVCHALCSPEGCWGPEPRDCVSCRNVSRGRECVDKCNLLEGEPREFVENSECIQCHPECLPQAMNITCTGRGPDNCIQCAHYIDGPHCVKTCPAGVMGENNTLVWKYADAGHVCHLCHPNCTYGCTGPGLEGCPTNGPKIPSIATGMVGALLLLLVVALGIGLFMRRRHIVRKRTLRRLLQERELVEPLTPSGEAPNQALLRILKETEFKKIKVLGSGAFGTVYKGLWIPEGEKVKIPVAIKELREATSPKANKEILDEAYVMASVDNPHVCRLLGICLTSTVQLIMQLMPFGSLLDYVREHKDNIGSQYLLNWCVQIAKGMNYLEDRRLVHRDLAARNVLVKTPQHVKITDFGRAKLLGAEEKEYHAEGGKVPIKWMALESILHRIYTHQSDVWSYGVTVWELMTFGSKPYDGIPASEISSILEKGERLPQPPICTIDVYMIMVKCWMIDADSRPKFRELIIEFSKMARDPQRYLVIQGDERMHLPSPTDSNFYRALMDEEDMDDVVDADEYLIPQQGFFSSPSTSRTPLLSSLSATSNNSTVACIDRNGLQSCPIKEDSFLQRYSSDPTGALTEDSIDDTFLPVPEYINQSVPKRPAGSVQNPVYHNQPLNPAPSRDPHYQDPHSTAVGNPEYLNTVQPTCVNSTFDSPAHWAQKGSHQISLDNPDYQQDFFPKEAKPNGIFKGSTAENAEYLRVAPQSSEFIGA
Sequence of EGFR Del19/C797S (P00533 with tags, fused parts or gaps DEL746-750/C797S): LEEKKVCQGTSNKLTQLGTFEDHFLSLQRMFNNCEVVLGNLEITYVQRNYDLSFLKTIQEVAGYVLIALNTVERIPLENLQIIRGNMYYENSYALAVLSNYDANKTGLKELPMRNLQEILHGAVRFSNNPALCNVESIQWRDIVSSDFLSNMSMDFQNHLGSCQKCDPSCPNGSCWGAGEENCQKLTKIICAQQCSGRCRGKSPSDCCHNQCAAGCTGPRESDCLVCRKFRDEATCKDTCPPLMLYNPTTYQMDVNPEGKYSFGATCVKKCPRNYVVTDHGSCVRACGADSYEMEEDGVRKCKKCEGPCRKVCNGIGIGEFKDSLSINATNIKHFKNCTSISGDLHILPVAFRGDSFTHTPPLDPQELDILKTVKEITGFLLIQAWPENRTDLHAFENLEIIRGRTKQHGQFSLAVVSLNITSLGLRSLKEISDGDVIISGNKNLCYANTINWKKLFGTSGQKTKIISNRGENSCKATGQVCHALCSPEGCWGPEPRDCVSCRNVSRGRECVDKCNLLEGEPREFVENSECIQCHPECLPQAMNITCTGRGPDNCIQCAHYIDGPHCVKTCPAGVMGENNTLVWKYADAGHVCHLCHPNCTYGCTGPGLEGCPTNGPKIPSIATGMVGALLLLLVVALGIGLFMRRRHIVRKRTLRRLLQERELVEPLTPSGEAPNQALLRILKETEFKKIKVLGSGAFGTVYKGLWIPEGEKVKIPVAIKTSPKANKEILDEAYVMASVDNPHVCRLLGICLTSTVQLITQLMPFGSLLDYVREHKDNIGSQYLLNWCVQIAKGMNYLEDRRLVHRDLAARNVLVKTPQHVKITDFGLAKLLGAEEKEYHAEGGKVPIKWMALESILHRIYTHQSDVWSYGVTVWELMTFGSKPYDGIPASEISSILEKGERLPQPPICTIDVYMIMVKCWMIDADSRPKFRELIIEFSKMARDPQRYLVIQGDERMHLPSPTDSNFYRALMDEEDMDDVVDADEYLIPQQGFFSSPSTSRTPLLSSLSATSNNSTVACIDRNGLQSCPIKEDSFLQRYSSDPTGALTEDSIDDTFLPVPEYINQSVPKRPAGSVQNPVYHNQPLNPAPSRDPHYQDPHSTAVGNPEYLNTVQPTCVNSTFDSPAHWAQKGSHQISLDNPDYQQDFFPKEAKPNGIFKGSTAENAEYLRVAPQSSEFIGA
Sequence of EGFR L858R/C797S (P00533 25-1210 C797S/L858R): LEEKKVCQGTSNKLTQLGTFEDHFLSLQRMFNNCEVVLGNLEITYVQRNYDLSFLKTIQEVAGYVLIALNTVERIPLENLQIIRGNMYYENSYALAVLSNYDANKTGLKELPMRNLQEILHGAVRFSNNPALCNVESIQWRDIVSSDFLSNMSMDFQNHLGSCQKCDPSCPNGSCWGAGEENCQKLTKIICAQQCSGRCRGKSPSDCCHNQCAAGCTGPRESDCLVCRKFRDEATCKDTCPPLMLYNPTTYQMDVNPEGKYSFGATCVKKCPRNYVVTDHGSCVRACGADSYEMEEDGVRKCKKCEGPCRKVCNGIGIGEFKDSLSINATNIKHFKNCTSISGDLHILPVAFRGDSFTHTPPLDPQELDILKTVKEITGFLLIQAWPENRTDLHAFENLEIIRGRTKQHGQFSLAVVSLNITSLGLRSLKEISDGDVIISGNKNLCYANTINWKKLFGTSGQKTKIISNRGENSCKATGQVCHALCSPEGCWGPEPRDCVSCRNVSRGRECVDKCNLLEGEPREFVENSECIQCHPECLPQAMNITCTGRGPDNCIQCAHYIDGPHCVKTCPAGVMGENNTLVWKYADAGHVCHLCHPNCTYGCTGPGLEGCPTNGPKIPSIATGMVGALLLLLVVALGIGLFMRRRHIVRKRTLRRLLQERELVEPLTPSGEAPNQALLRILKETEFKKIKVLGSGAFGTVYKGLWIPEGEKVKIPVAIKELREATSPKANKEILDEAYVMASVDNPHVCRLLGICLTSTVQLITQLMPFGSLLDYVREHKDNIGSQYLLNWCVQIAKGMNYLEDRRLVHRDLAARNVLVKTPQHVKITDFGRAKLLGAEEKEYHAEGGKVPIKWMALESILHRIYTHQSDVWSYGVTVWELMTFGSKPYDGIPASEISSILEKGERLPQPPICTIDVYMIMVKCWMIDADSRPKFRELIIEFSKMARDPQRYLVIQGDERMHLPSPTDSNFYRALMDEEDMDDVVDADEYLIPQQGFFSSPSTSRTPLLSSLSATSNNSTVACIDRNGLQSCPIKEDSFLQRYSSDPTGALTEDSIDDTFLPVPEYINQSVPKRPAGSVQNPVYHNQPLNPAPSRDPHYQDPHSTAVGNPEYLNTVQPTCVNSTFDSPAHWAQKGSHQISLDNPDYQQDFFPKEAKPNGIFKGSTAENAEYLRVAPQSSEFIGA
Sequence of EGFR wildtype (WT) (P00533 25-1210): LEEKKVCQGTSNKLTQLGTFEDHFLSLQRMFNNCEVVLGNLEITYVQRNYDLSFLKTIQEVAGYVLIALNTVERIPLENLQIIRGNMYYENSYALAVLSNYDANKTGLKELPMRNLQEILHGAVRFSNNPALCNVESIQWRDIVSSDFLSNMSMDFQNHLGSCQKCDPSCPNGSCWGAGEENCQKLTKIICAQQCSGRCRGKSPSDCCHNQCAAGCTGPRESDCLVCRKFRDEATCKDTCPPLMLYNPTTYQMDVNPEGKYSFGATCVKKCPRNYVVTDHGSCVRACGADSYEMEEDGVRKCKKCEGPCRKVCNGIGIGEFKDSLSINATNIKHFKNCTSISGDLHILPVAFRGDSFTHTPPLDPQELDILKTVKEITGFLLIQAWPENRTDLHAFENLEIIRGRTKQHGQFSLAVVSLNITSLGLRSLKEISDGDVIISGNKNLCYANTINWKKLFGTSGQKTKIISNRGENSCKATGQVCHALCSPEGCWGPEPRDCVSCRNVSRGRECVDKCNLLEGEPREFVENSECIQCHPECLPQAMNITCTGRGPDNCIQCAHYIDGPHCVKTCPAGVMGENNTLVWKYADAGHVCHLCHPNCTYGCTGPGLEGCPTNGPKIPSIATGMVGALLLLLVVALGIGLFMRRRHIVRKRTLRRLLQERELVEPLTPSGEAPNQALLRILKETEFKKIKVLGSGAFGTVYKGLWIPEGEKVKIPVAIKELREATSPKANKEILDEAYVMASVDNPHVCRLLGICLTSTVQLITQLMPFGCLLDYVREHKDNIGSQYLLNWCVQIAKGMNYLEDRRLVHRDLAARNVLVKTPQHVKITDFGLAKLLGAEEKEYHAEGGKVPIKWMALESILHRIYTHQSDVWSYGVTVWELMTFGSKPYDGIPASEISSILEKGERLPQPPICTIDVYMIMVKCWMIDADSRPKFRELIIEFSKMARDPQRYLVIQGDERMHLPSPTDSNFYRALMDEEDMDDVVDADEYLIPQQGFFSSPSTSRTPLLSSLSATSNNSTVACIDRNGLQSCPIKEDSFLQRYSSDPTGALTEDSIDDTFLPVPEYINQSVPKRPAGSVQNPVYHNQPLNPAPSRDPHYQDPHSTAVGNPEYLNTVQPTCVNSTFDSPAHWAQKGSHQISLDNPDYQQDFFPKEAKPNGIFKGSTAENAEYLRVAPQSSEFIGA

With `O=S(=O)(C1CC1)n1cc(-c2nccc(Nc3cc(N[C@H]4CC[C@@H](CO)CC4)c(C#Cc4cnn(CC(F)F)c4)cn3)n2)cn1` [Example 324, ((1s,4s)-4-((2-((2-(1-(Cyclopropylsulfonyl)-1H-pyrazol-4-yl)pyrimidin-4-yl)amino)-5-((1-(2,2-difluoroethyl)-1H-pyrazol-4-yl)ethynyl)pyridin-4-yl)amino)cyclohexyl)methanol], the IC50 in assay [1] (setting [6]) was 0.2 nM; in assay [1] (setting [7]), 0.5 nM; in assay [2] (setting [8]), 0.3 nM; in assay [2] (setting [9]) it was 0.3 nM; in assay [3] (setting [10]) it was 1.3 nM; in assay [3] (setting [11]), 2 nM. Further, the IC50 in assay [4] (setting [12]) was 16.5 nM; in assay [4] (IC50 WT (nM), 100 μM ATP) it was greater than 10000 nM; in assay [5] (setting [13]) it was 3.7 nM; in assay [5] (setting [14]), 20.9 nM.
Turning to `O=S(=O)(C1CC1)n1cc(-c2nccc(Nc3cc(N4CCC(NCCF)CC4)c(C#Cc4cnn(C5CCOCC5)c4)cn3)n2)cn1` [Example 136, 2-(1-(Cyclopropylsulfonyl)-1H-pyrazol-4-yl)-N-(4-(4-((2-fluoroethyl)amino)piperidin-1-yl)-5-((1-(tetrahydro-2H-pyran-4-yl)-1H-pyrazol-4-yl)ethynyl)pyridin-2-yl)pyrimidin-4-amine], the IC50 in assay [1] (setting [7]) turned out to be 1.2 nM; in assay [1] (Km ATP, read-out: IC50 L858R/T790M/C797S (nM) Km ATP), 0.3 nM; in assay [2] (setting [9]), 0.3 nM; in assay [2] (Km ATP, read-out: IC50 Del19/T790M/C797S (nM) Km ATP) it was 0.3 nM; in assay [3] (setting [11]), 4.9 nM; in assay [3] (Km ATP, read-out: IC50 Del19/C797S (nM) Km ATP) it was 3.3 nM. The IC50 is greater than 10000 nM in assay [4] (IC50 WT (nM), 100 μM ATP); 60.2 nM in assay [4] (Km ATP, read-out: IC50 WT (nM) Km ATP); 30.5 nM in assay [5] (setting [14]); 2.7 nM in assay [5] (Km ATP, read-out: IC50 L858R/C797S (nM) Km ATP).
As for `CC(C)Nc1cc(Nc2ccnc(-c3cnn(S(=O)(=O)C4CC4)c3)n2)ncc1C#CCN1CCS(=O)(=O)CC1` [Example 201, 4-(3-(6-((2-(1-(Cyclopropylsulfonyl)-1H-pyrazol-4-yl)pyrimidin-4-yl)amino)-4-(isopropylamino)pyridin-3-yl)prop-2-yn-1-yl)thiomorpholine 1,1-dioxide], the IC50 was 1.2 nM in assay [1] (setting [6]); 1.7 nM in assay [2] (setting [8]); 36.7 nM in assay [3] (setting [10]); 292 nM in assay [4] (setting [12]); 141 nM in assay [5] (setting [13]).
For `CN(C)C[C@H]1CC[C@@H](Nc2cc(Nc3ccnc(-c4cnn(S(=O)(=O)C5CC5)c4)n3)ncc2C#Cc2cnn(C3CC3)c2)CC1` [Example 313, 5-((1-Cyclopropyl-1H-pyrazol-4-yl)ethynyl)-N^2-(2-(1-(cyclopropylsulfonyl)-1H-pyrazol-4-yl)pyrimidin-4-yl)-N^4-((1s,4s)-4-((dimethylamino)methyl)cyclohexyl)pyridine-2,4-diamine], the IC50 in assay [1] (setting [6]) was 0.1 nM; in assay [1] (setting [7]) it was 0.3 nM; in assay [2] (setting [8]), 0.3 nM; in assay [2] (setting [9]) it was 0.4 nM; in assay [3] (setting [10]) it was 1.2 nM; in assay [3] (setting [11]), 2 nM. The IC50 in assay [4] (setting [12]) was 10.7 nM; in assay [4] (IC50 WT (nM), 100 μM ATP) it was 4690 nM; in assay [5] (setting [13]), 0.9 nM; in assay [5] (setting [14]), 9 nM.
Consider `CC1(CO)CCN(c2cc(Nc3ccnc(-c4cnn(S(=O)(=O)C5CC5)c4)n3)ncc2C#Cc2cc(C(F)(F)F)n[nH]2)CC1` [Example 290, (1-(2-((2-(1-(Cyclopropylsulfonyl)-1H-pyrazol-4-yl)pyrimidin-4-yl)amino)-5-((3-(trifluoromethyl)-1H-pyrazol-5-yl)ethynyl)pyridin-4-yl)-4-methylpiperidin-4-yl)methanol], for which the IC50 is 8.6 nM in assay [1] (setting [7]); 5.7 nM in assay [2] (setting [9]); 26.2 nM in assay [3] (setting [11]); greater than 10000 nM in assay [4] (IC50 WT (nM), 100 μM ATP); greater than 10000 nM in assay [5] (setting [14]).
With `Cn1cc(C#Cc2cnc(Nc3ccnc(-c4cnn(S(=O)(=O)C5CC5)c4)n3)cc2N2CCC(F)CC2)cn1` [Example 8, 2-(1-(Cyclopropylsulfonyl)-1H-pyrazol-4-yl)-N-(4-(4-fluoropiperidin-1-yl)-5-((1-methyl-1H-pyrazol-4-yl)ethynyl)pyridin-2-yl)pyrimidin-4-amine], the IC50 in assay [1] (setting [7]) is 2.2 nM; in assay [2] (setting [9]) it was 3.1 nM; in assay [3] (setting [11]), 9.5 nM; in assay [4] (IC50 WT (nM), 100 μM ATP) it was greater than 10000 nM; in assay [5] (setting [14]), 33.2 nM.
